A melting point compilation (Tetko et al.; mined from patent text by program, amines drawn as free bases though some values may be those of a salt)

melting point	Compound
118 to 119 °C	CC(C)c1nc(CCCOCc2ccccc2)[nH]c1Sc1cc(Cl)cc(Cl)c1
107 to 110 °C	CCCc1c(CSc2nnc(SCCCS(=O)CC(=O)O)s2)ccc(C(C)=O)c1O (stereo unspecified)
142 to 144 °C	CCCCc1ncc(/C=C(\Cc2ccsc2)c2nnn[nH]2)n1Cc1ccccc1Cl
120 to 122 °C	CCCCC(CC)COc1c(-c2ccc(S(C)(=O)=O)cc2)cnn(-c2ccc(F)cc2)c1=O (stereo unspecified)
87 to 88 °C	O=C(NN1CCCC1=O)C(O)=CC(=O)c1cc(Cc2ccc(F)cc2F)cn(Cc2ccc(F)cc2)c1=O
139 to 142 °C	O=C1CCC(N2Cc3c(OCc4ccc(CN5CCn6nc(C(F)(F)F)nc6C5)cc4)cccc3C2=O)C(=O)N1 (stereo unspecified)
183 to 185 °C	Cc1cc(-c2cccnc2)n2ncnc2n1
78 to 79 °C	Cc1sc(-c2ccccc2)nc1COc1ccc(CCl)cn1
305 to 307 °C	O=C1Nc2cc(Cl)ccc2C(=O)C1c1cccs1 (stereo unspecified)
270 to 273 °C	O=S1(=O)N=CN(C2CC2)c2cc(F)cc(Br)c21
> 320 °C	O=C(O)Cn1c(=O)c(=O)[nH]c2cc(Br)ccc21
175 to 176 °C	COC(=O)COc1cccc2c1CCC(n1nc(-c3c(-c4ccccc4)nn4ccccc34)ccc1=O)C2=O (stereo unspecified)
227 to 228 °C	O=C(Nc1ccc(Cl)c(Cl)c1)c1c(O)c2ccccc2oc1=O
96 to 97 °C	CCC1(CCCCCl)C(=O)Nc2ccc(F)cc21 (stereo unspecified)
193 to 194 °C	COc1cc2c(Nc3cccc(Cl)c3F)ncnc2cc1OC1CCN(C(=O)C2CCCO2)CC1 (stereo unspecified)
150 °C	CCOC(=O)C1=C(C)NC(C)=C(C(=O)OC)C1c1ccc([N+](=O)[O-])cc1 (stereo unspecified)
123 to 124 °C	NC(=O)OCC(O)COc1noc2ccc(Cl)cc12 (stereo unspecified)
198 to 200 °C	CC(=O)NCc1ccc(CN2CCN(c3ccc(N)cc3)CC2)cc1
82 to 84 °C	CCC(CC)Oc1nc(C)nc(Cc2c(C)cc(C)cc2C)c1C
103 to 105 °C	CCNC(=O)n1nc(Oc2ccc(C#N)cc2C(F)(F)F)cc1C
41 to 43 °C	O=C(CCc1ccccc1)c1ccc(OCCO)cc1
136 to 137 °C	CCOC(=O)c1cc(=O)c2ccc(OCCCCCOc3ccc(C(C)=O)c(O)c3)cc2o1

melting point	Compound
180 °C	NC[C@@H]1CNc2cccc(-c3ccccc3C(F)(F)F)c2O1
155 to 157 °C	COC(=O)CC1c2cc(OC)ccc2N(c2nc3ccccc3nc2Cl)C1C (stereo unspecified)
190 to 191 °C	Cc1cc(O)cc(C)c1N
151 to 154 °C	Cc1ccc(-c2cn(C)cc(-c3ccccc3C)c2=O)cc1
144 to 147 °C	CC(C)c1c(CO)c(-c2ccc(F)cc2)nn1-c1ccccc1
204 to 205 °C	COc1ccc(-c2c(Cl)c(CNC(C)(C)C)nc3sc4c(c23)CCN(C(=O)c2ccccc2)C4)cc1OC
190 to 192 °C	CC(C)(Sc1ccncc1)C(=O)O
146 to 151 °C	O=C(Nc1c([N+](=O)[O-])cnn1-c1c(Cl)cc(C(F)(F)F)c(Cl)c1Cl)C(F)F
109 to 111 °C	CC(C)(C)OC(=O)N[C@@H](CSc1ccccc1N)C(=O)O
200 °C	O=C(O)c1ncncc1Br
69 to 70 °C	Cc1ccc(C=C2CCc3cc(OCCc4c[nH]cn4)ccc3C2=O)s1
212 to 214 °C	CC(C)(C)n1cc(-c2ccc(-c3ccccc3)cc2)c2c(N)ncnc21
151 to 152 °C	O=C(CO)NCc1ccc2ccn(C3CCN(CCc4ccccc4F)CC3)c2c1
210 to 211 °C	CCC(CC)(COc1nn2ccnc2cc1C)CS(N)(=O)=O
124 °C	O=C1CCC(c2cccc(F)c2)(c2cccc(F)c2)[C@@H]2CN(Cc3ccccc3)C[C@H]12 (racemic)
> 300 °C	Nc1ccc(C(=O)Nc2ccc(-c3c[nH]c(=O)cn3)cc2)cc1
227 °C	CC(C)c1ccc(S(=O)(=O)n2c(Cc3ccc(C(=O)O)cc3)cc3cc(C(F)(F)F)ccc32)cc1
43 °C	Fc1c(Cl)cccc1Br
159 to 161 °C	COc1ccc(-c2ccc(=O)[nH]n2)c(OCC(O)CNC(C)(C)C)c1 (stereo unspecified)
118 to 119 °C	CCOC(=O)C1=C(C)NC(C)=C(C(=O)OCC)C1c1cc(Br)ccc1F
205 to 206 °C	O=C(C=C1SC(Nc2c(Cl)cccc2Cl)=NC1=O)NCc1ccccc1
161 to 165 °C	COc1cc2c(c3c1OC(C)(C)C3)C(c1cccc(-c3ccc(C(=O)O)cc3)c1)=NC(C)(C)C2

melting point	Compound
146 to 148 °C	Cc1cc(C)c(C(=O)CCCCC(=O)O)c(O)c1C
199 °C	Cc1cccc(-c2cc(Cl)nc3ccc(C(=O)c4ccc(Cl)cc4)cc23)c1
236 to 237 °C	CCCc1cc(=O)oc2c(C=O)c(O)cc(O)c12
42.3 to 44.6 °C	O=C1NC(=O)C(Cc2ccc(OCCn3ccc4ccccc43)cc2)S1 (stereo unspecified)
98 °C	CCC(Oc1ccc(-n2c(C)nc3cc(C(F)(F)F)ccc32)cc1)C(=O)O (stereo unspecified)
110 to 112 °C	Cn1c2c(ccc1=O)C(NCCc1ccc(Cl)cc1)CCC2 (stereo unspecified)
132 to 134 °C	CC(C)CNc1cccnc1N1CCN(C(=O)c2ccc(C(=O)NC(C)C)cn2)CC1
35 to 38 °C	CCCCCCCCCCCCCCCCCCSC(C)CCO (stereo unspecified)
210 to 212 °C	CSc1ccc(C(=O)NCc2ccc3c(c2)C(=O)N(C2(C)CCC(=O)NC2=O)C3=O)nc1 (stereo unspecified)
153 °C	COc1ccc(-c2oc3cc(C)c(C)cc3c2-c2ccc(OC)cc2)cc1
197 °C	COC(=O)COc1ccc(NC(=O)/C=C/c2ccc(C#N)cc2)cc1
208 to 211 °C	CCOc1cccc(C(COC)n2nc(C(=O)O)c3c2-c2ccc(OCc4cncnc4)cc2CC3)c1 (stereo unspecified)
91 to 93 °C	CSc1cc2c(cc1C(F)(F)F)N(C(=O)Nc1cccc(C(=O)NCCN3CCCC3)c1)CC2
163 °C	COc1cc(-c2nc3cnc(OC[C@H](C)NC(C)=O)cc3o2)cc(F)c1OCC1CC1
165 to 168 °C	COC(=O)Nc1ccc(OCc2nc3cc(F)ccc3s2)cc1C
76 to 80 °C	CCCCCc1c(-c2ccc3cc(OC)ccc3c2)n(Cc2ccccc2)c2ccccc12
99 to 101 °C	CC(C)c1nc(Cl)nc(-c2ccc(F)cc2)c1Br
86 °C	COC[C@H]1CN(c2ccc(CCCC(=O)C3CCCCC3)cc2)C(=O)O1
160 to 161 °C	COc1ccc(C(=O)Nc2ccccc2)cc1Nc1cccc(C)c1
245 to 247 °C	CSc1nc(-c2ccc(S(C)(=O)=O)cc2)n(-c2ccc(C)c(C)c2)c(=O)c1C#N

Compound	melting point
CC12CCC(=O)C=C1CCC1C2CCC2(C)C(OC(=O)CCl)CCC12 (stereo unspecified)	125 to 126 °C
CCC(=O)Nc1cccc(-c2ccnc3c(C(=O)c4ccco4)cnn23)c1	185 to 186 °C
CCC(C#N)CCn1nc(C(N)=O)c2ccccc21 (stereo unspecified)	178 to 180 °C
CC[C@@H]1N(c2ccc(C#N)c(Cl)c2C)C(=O)C[C@@]1(O)C1CC1	177 to 179 °C
CCN(C(C)=O)c1cccc(-c2ccnc3c(Cl)cnn23)c1	157 to 159 °C
CCS(=O)(=O)Nc1ccc2[nH]cc(C3=CCN(C)CC3)c2c1	224 to 226 °C
O=C1c2ccccc2-n2cncc2[C@@H]2CCCN12	211 to 212 °C
